# Source: PubChem BioAssay (NCI)
#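 Tested at 5 concentrations; 48 h exposure; 96-well plates; endpoints linearly interpolated, else capped at highest concentration. TGI is the concentration that stops growth completely.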
# Tests used:
# Test in all cases: inhibition of tumour cell growth, NCI panel, 48 h
# DU-145 prostate = test system: DU-145 prostate
# HS 578T breast = test system: HS 578T breast
# SN12C renal = test system: SN12C renal
# K-562 leukemia = test system: K-562 leukemia
# M14 melanoma = test system: M14 melanoma
# UACC-62 melanoma = test system: UACC-62 melanoma
# MOLT-4 leukemia = test system: MOLT-4 leukemia
# 786-0 renal = test system: 786-0 renal
# U251 CNS = test system: U251 CNS
# MALME-3M melanoma = test system: MALME-3M melanoma
# SK-OV-3 ovarian = test system: SK-OV-3 ovarian
# SF-295 CNS = test system: SF-295 CNS
# OVCAR-3 ovarian = test system: OVCAR-3 ovarian
# SNB-75 CNS = test system: SNB-75 CNS
# OVCAR-5 ovarian = test system: OVCAR-5 ovarian
# RXF 393 renal = test system: RXF 393 renal
# HCT-15 colon = test system: HCT-15 colon
# ACHN renal = test system: ACHN renal
# NCI-H226 lung = test system: NCI-H226 lung
# HCT-116 colon = test system: HCT-116 colon
# CAKI-1 renal = test system: CAKI-1 renal
# PC-3 prostate = test system: PC-3 prostate
# NCI-H23 lung = test system: NCI-H23 lung
# MDA-MB-231 breast = test system: MDA-MB-231 breast
# UO-31 renal = test system: UO-31 renal
# SK-MEL-28 melanoma = test system: SK-MEL-28 melanoma
# IGROV1 ovarian = test system: IGROV1 ovarian
# A549 NSCLC = test system: A549 NSCLC
# A498 renal = test system: A498 renal
# SK-MEL-2 melanoma = test system: SK-MEL-2 melanoma
# HL-60(TB) leukemia = test system: HL-60(TB) leukemia
# KM12 colon = test system: KM12 colon
# BT-549 breast = test system: BT-549 breast
# UACC-257 melanoma = test system: UACC-257 melanoma
# SF-539 CNS = test system: SF-539 CNS
# SF-268 CNS = test system: SF-268 CNS
# RPMI-8226 leukemia = test system: RPMI-8226 leukemia
# NCI-H460 lung = test system: NCI-H460 lung
# OVCAR-4 ovarian = test system: OVCAR-4 ovarian
# SW-620 colon = test system: SW-620 colon
# TK-10 renal = test system: TK-10 renal
# HT29 colon = test system: HT29 colon
# T-47D breast = test system: T-47D breast
# SK-MEL-5 melanoma = test system: SK-MEL-5 melanoma
# OVCAR-8 ovarian = test system: OVCAR-8 ovarian
# HOP-62 NSCLC = test system: HOP-62 NSCLC
# MDA-MB-435 = test system: MDA-MB-435
# NCI/ADR-RES ovarian = test system: NCI/ADR-RES ovarian
# CCRF-CEM leukemia = test system: CCRF-CEM leukemia
# HOP-92 NSCLC = test system: HOP-92 NSCLC
# SNB-19 CNS = test system: SNB-19 CNS
# EKVX NSCLC = test system: EKVX NSCLC
# LOX IMVI melanoma = test system: LOX IMVI melanoma
# MCF7 breast = test system: MCF7 breast
# HCC-2998 colon = test system: HCC-2998 colon
# COLO 205 colon = test system: COLO 205 colon
# MDA-N = test system: MDA-N
# NCI-H522 lung = test system: NCI-H522 lung
# SR leukemia = test system: SR leukemia
structure (smiles),measurement,setting,value
O=C(O)c1ccccc1Sc1ccccc1[N+](=O)[O-],TGI,DU-145 prostate,> 100 µM
same,TGI,HS 578T breast,> 100 µM
same,TGI,SN12C renal,> 100 µM
same,TGI,K-562 leukemia,> 100 µM
same,TGI,M14 melanoma,> 100 µM
same,TGI,UACC-62 melanoma,> 100 µM
same,TGI,MOLT-4 leukemia,> 100 µM
same,TGI,786-0 renal,> 100 µM
same,TGI,U251 CNS,> 100 µM
same,TGI,MALME-3M melanoma,> 100 µM
same,TGI,SK-OV-3 ovarian,> 100 µM
same,TGI,SF-295 CNS,> 100 µM
same,TGI,OVCAR-3 ovarian,> 100 µM
same,TGI,SNB-75 CNS,> 100 µM
same,TGI,OVCAR-5 ovarian,> 100 µM
same,TGI,RXF 393 renal,> 100 µM
same,TGI,HCT-15 colon,> 100 µM
same,TGI,ACHN renal,> 100 µM
same,TGI,NCI-H226 lung,> 100 µM
same,TGI,HCT-116 colon,> 100 µM
same,TGI,CAKI-1 renal,> 100 µM
same,TGI,PC-3 prostate,> 100 µM
same,TGI,NCI-H23 lung,> 100 µM
same,TGI,MDA-MB-231 breast,> 100 µM
same,TGI,UO-31 renal,> 100 µM
same,TGI,SK-MEL-28 melanoma,> 100 µM
same,TGI,IGROV1 ovarian,> 100 µM
same,TGI,A549 NSCLC,> 100 µM
same,TGI,A498 renal,> 100 µM
same,TGI,SK-MEL-2 melanoma,> 100 µM
same,TGI,HL-60(TB) leukemia,> 100 µM
same,TGI,KM12 colon,> 100 µM
same,TGI,BT-549 breast,> 100 µM
same,TGI,UACC-257 melanoma,> 100 µM
same,TGI,SF-539 CNS,> 100 µM
same,TGI,SF-268 CNS,> 100 µM
same,TGI,RPMI-8226 leukemia,> 100 µM
same,TGI,NCI-H460 lung,> 100 µM
same,TGI,OVCAR-4 ovarian,> 100 µM
same,TGI,SW-620 colon,> 100 µM
same,TGI,TK-10 renal,> 100 µM
same,TGI,HT29 colon,> 100 µM
same,TGI,T-47D breast,> 100 µM
same,TGI,SK-MEL-5 melanoma,> 100 µM
same,TGI,OVCAR-8 ovarian,> 100 µM
same,TGI,HOP-62 NSCLC,> 100 µM
same,TGI,MDA-MB-435,> 100 µM
same,TGI,NCI/ADR-RES ovarian,> 100 µM
same,TGI,CCRF-CEM leukemia,> 100 µM
same,TGI,HOP-92 NSCLC,> 100 µM
same,TGI,SNB-19 CNS,> 100 µM
same,TGI,EKVX NSCLC,> 100 µM
same,TGI,LOX IMVI melanoma,> 100 µM
same,TGI,MCF7 breast,> 100 µM
same,TGI,HCC-2998 colon,> 100 µM
same,TGI,COLO 205 colon,> 100 µM
same,TGI,MDA-N,> 100 µM
same,TGI,NCI-H522 lung,> 100 µM
C/C(=N/OC(=O)c1cccc2c(=O)c3ccccc3[nH]c12)[C@H]1CC[C@H]2[C@@H]3CCC4=C/C(=N/OC(=O)c5cccc6c(=O)c7ccccc7[nH]c56)CC[C@]4(C)[C@H]3CC[C@]12C,TGI,DU-145 prostate,79.3 µM
same,TGI,HS 578T breast,> 100 µM
same,TGI,SN12C renal,30.6 µM
same,TGI,K-562 leukemia,> 100 µM
same,TGI,M14 melanoma,29.7 µM
same,TGI,UACC-62 melanoma,32.1 µM
same,TGI,MOLT-4 leukemia,39.6 µM
same,TGI,786-0 renal,44.7 µM
same,TGI,U251 CNS,29.6 µM
same,TGI,MALME-3M melanoma,37.3 µM
same,TGI,SK-OV-3 ovarian,93.2 µM
same,TGI,SF-295 CNS,34.6 µM
same,TGI,OVCAR-3 ovarian,34.4 µM
same,TGI,SNB-75 CNS,97.6 µM
same,TGI,OVCAR-5 ovarian,33.7 µM
same,TGI,HCT-15 colon,27 µM
same,TGI,ACHN renal,29.5 µM
same,TGI,NCI-H226 lung,52.8 µM
same,TGI,HCT-116 colon,25 µM
same,TGI,CAKI-1 renal,47.2 µM
same,TGI,PC-3 prostate,31.5 µM
same,TGI,NCI-H23 lung,29.9 µM
same,TGI,MDA-MB-231 breast,30.6 µM
same,TGI,UO-31 renal,28.5 µM
same,TGI,IGROV1 ovarian,37.1 µM
same,TGI,SR leukemia,25.3 µM
same,TGI,A549 NSCLC,> 100 µM
same,TGI,SK-MEL-2 melanoma,32.8 µM
same,TGI,HL-60(TB) leukemia,34 µM
same,TGI,KM12 colon,38.2 µM
same,TGI,BT-549 breast,34.8 µM
same,TGI,UACC-257 melanoma,33.4 µM
same,TGI,SF-539 CNS,29.5 µM
same,TGI,SF-268 CNS,45.5 µM
same,TGI,RPMI-8226 leukemia,14.6 µM
same,TGI,OVCAR-4 ovarian,> 100 µM
same,TGI,SW-620 colon,27.1 µM
same,TGI,TK-10 renal,45.2 µM
same,TGI,HT29 colon,28.8 µM
same,TGI,T-47D breast,58.8 µM
same,TGI,SK-MEL-5 melanoma,26.4 µM
same,TGI,OVCAR-8 ovarian,33.3 µM
same,TGI,HOP-62 NSCLC,51.2 µM
same,TGI,MDA-MB-435,33.3 µM
same,TGI,NCI/ADR-RES ovarian,43.1 µM
same,TGI,CCRF-CEM leukemia,16.3 µM
same,TGI,HOP-92 NSCLC,42.6 µM
same,TGI,SNB-19 CNS,39.4 µM
same,TGI,EKVX NSCLC,71.3 µM
same,TGI,LOX IMVI melanoma,26.7 µM
same,TGI,MCF7 breast,26.4 µM
same,TGI,HCC-2998 colon,26.9 µM
same,TGI,COLO 205 colon,30.3 µM
same,TGI,MDA-N,30.3 µM
same,TGI,NCI-H522 lung,26.2 µM
